The assay relates to M. tuberculosis H37Rv growth inhibition, 7H9 media. Nature of the assay: M. tuberculosis growth inhibition, HTS (AID 449762).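 As to all read-outs here: bacterial growth assessed after seven days of incubation.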 Conditions: for IC90: measured here: IC90 growth inhibition.

Results filed as inconclusive are left out. Some results are limits rather than exact numbers.

What is called IC50 is the concentration at which inhibition is half-maximal. As usually defined, the IC90 is the point of the concentration-response curve where the effect stands at 90%. Low values mean greater potency, high ones weaker potency. Regarding `CCc1nc2ccccc2c(C(=O)Nc2cc(C)ccc2C)c1C`, the half-inhibitory concentration (IC50) is 13 µM and the IC90 is over 100 µM.
In the case of `O=Cc1ccc(-c2ccc(Cl)cc2Cl)[nH]1`, the IC90 was over 100 µM.
On to `O=C(Nc1ccc(OC(F)(F)F)cc1)c1ccc2c(c1)no[n+]2[O-]`, for which the IC50 was under 0.2 µM and the IC90 was 0.2 µM.
On the same counts, the results for `Cc1cc(CC(C)C)n(-c2nc3ccccc3c(=O)n2OCC(N)=O)n1` are 3.88 µM and 12.7 µM.
For `Cc1cc(/C=C(/C#N)c2cccc(F)c2)c(C)n1-c1cccnc1`, the IC90 is over 100 µM.
Consider `Cc1cccc(OCc2n(CC(=O)OC3CC(C)CCC3C(C)C)c3ccccc3[n+]2C)c1` (centres undefined), for which the IC50 was 7.43 µM and the IC90 was 9.6 µM.
For `Cc1ccc(N/N=C/C=C/c2ccco2)cc1`, the IC50 is 61.2 µM and the IC90 stood at 98.2 µM.
In the same order, the values of `Cn1nc(C(C)(C)C)cc1NC(=O)Nc1cc(Cl)cc(Cl)c1` are 18.5 µM and 26.3 µM.
On the same counts, the results for `O=C1C2(Cl)C3(Cl)C4(Cl)C(Cl)(Cl)C5(Cl)C3(Cl)C1(Cl)C5(Cl)C24Cl` (centres undefined) are 46.7 µM and 53 µM.
Take `Cc1ccc(NCCC(=O)c2ccc(Br)cc2)cc1`: the IC50 was 10.6 µM and the IC90 came out at 21.5 µM.
On the same counts, the results for `COC(=O)CSc1ncnc2c1cnn2-c1ccc(C)cc1C` are 3.82 µM and 7.95 µM.
On the same counts, the results for `Nc1nc2ccccc2n1/N=C/c1ccc(Br)cc1` are 12.2 µM and over 25 µM.
`CCCOc1ccc2oc(=O)c3c(c2c1)CCCN3C(=O)CN1CCN(c2ncccn2)CC1`: the IC50 is 20.8 µM and the IC90 was 33.8 µM.
On the same counts, the results for `CNc1ccc2nc3ccccc3[n+](C)c2c1` are 1.29 µM and 2.34 µM.
On the same counts, the results for `Cc1ccc(C(=O)N/N=C(/CC(=O)c2cccs2)C(F)(F)F)cc1` are 2.97 µM and 3.28 µM.
In the same order, the values of `COc1ccc(CCNc2cc(-c3ccccc3)nc3ncnn23)cc1` are 4.49 µM and over 100 µM.
In the case of `O=C1C2C(C(=O)N1/N=C/c1ccc([N+](=O)[O-])o1)C1C=CC2C12CC2` (centres undefined), the IC50 is 19 µM and the concentration for an effect of 90% (IC90) stood at 29.6 µM.
For the compound `Cc1cc(N/N=C/c2ccccc2[N+](=O)[O-])nc(-n2nc(C)cc2C)n1`, the IC50 was 0.92 µM and the IC90 is 4.72 µM.
As for `C=CCc1c(C)nc(C)nc1N/N=C/c1ccccc1O`, the IC50 is 2.25 µM and the concentration for an effect of 90% (IC90) was 4.08 µM.
Consider `N#C/C(=C\c1ccc(-c2ccc(Br)cc2)o1)C(=O)NCCc1c[nH]c2ccccc12`, for which the 50% inhibitory concentration (IC50) is 96.1 µM and the IC90 is over 100 µM.
As to `S=C(NN=C1CCN(Cc2ccccc2)CC1)NC1CCCCC1`, the IC50 is 16.7 µM and the IC90 is 25.3 µM.
Take `O=C(Nc1cccc(-c2csc(Nc3ccc(Cl)cc3)n2)c1)c1cccc(C(F)(F)F)c1`: the 50% inhibitory concentration (IC50) was 27 µM and the IC90 is over 100 µM.
With `COc1ccc(CCNc2nc(N3CCCCC3)nc(N3CCCCC3)n2)cc1OC`, the IC50 is 17.3 µM and the IC90 is 22.5 µM.
For the compound `O=C(CCCCCNc1nc(=S)[nH]c2ccccc12)N1CCN(c2ccccn2)CC1`, the IC50 was 40.9 µM and the IC90 was over 100 µM.
In the same order, the values of `c1ccc(-c2cn3c(n2)CCc2ccc4cccnc4c2-3)cc1` are 8.12 µM and 41.2 µM.
With `CCOC(=O)C1CCN(c2nc3cc(OC)ccc3cc2C#N)CC1`, the IC50 is 52.7 µM and the IC90 is over 100 µM.
In the same order, the values of `O=[N+]([O-])c1cc(-c2ccc(/C=N\n3cnnc3)o2)cc([N+](=O)[O-])c1` are 0.65 µM and 1.86 µM.
As for `CCCCCCCCNC(C)C(O)c1ccc(SC(C)C)cc1` (centres undefined), the IC50 was 22.5 µM and the IC90 came to 31.8 µM.
On the same counts, the results for `COc1ccc(-c2cc(C3CCN(C(=O)OC(C)(C)C)CC3)[nH]n2)cc1` are 17 µM and 30.6 µM.
On the same counts, the results for `O=C1CCCC2=C1C1c3ccccc3C(=O)N1c1ccc(C(=O)c3ccccc3)cc1N2` (centres undefined) are 16 µM and 21.9 µM.
On the same counts, the results for `Cc1cccc(/C=c2\s/c(=C\C(=O)C(C)(C)C)[nH]c2=O)c1` are 5.66 µM and 23.6 µM.
Consider `CC(C)Nc1nc(NC(C)C)nc(N(C)N)n1`, for which the IC50 was 5.75 µM and the IC90 stood at 7.57 µM.
With `O=C(Nc1nnc(-c2ccccc2Cl)o1)c1nc2ccccc2s1`, the IC50 is 6.01 µM and the IC90 came out at 6.78 µM.
In the same order, the values of `COc1cc(OC)cc(-c2cc3nc(C)c(CCC(=O)NC(C)CCc4ccco4)c(C)n3n2)c1` (centres undefined) are 44.3 µM and over 100 µM.
The compound `O=C(COc1cc(O)c2c(=O)c3ccccc3oc2c1)OCc1ccccc1` showed an IC90 of over 100 µM.
On to `Cc1nn(-c2ccccc2)nc1C(=O)c1c(C)[nH]n(-c2ccccc2)c1=O`, for which the IC50 is 9.7 µM and the concentration for an effect of 90% (IC90) turned out to be 18.7 µM.
In the same order, the values of `C[C@]12C=CC(=O)C=C1CC[C@@H]1C2=CC[C@]2(C)[C@@H](C(=O)CN3CCN(c4cc(N5CCCC5)nc(N5CCCC5)n4)CC3)CC[C@@H]12` are 22.5 µM and 30.4 µM.
In the same order, the values of `Cc1cc(C)n2[nH]c(=O)c(N=Nc3cccc(C(F)(F)F)c3)c2n1` are 86.5 µM and over 100 µM.
In the same order, the values of `COc1cc2c(cc1OC)C(c1cc(Br)ccc1F)N(C(=O)CCl)CC2` (centres undefined) are 2.77 µM and 5.69 µM.
In the case of `Cc1cccc(C(=O)OCC(=O)N2CCc3ccccc3C2)c1O`, the IC50 was 46.3 µM and the IC90 was over 100 µM.
In the same order, the values of `NC(=O)c1cccn1-c1ncc(C(F)(F)F)cc1Cl` are 6.8 µM and 16.6 µM.
In the same order, the values of `C/C(CC(=O)Nc1ccc(Cl)cc1C(F)(F)F)=N\NC(N)=S` are 16 µM and 19.5 µM.
As to `CNc1ccc2oc(C[C@H]3O[C@@]4(CC[C@H]3C)O[C@H]([C@H](C)C(=O)c3ccc[nH]3)[C@H](C)C[C@H]4C)nc2c1C(=O)O`, the IC50 is 1.1 µM and the concentration for an effect of 90% (IC90) worked out at 1.97 µM.
On the same counts, the results for `Nc1nonc1C(=O)NCCNCc1c(OCc2ccccc2F)ccc2ccccc12` are 39.8 µM and 50.5 µM.
In the same order, the values of `O=c1c2c(nc3nc(NCc4ccc(Cl)cc4)[nH]n13)CCC2` are 6.28 µM and 7.32 µM.
On the same counts, the results for `Cn1c(NC(=S)Nc2ccccc2)nc2ccccc21` are 3.71 µM and 6.27 µM.
Consider `COc1ccccc1NC(=O)Nc1nc(CC(=O)N2CCN(c3ccccc3F)CC2)cs1`, for which the IC50 is 41.7 µM and the IC90 is over 100 µM.
On the same counts, the results for `O=C(c1ccco1)N1CCN(C(=O)C2CC(c3ccc(Cl)c(Cl)c3)=NO2)CC1` (centres undefined) are 3.88 µM and 11 µM.
In the same order, the values of `Cc1ccc(OC(=O)CCN2C(=O)c3ccccc3C2=O)cc1C` are 28.6 µM and over 100 µM.
On to `COC(=O)C1C(O)C(C)C(O)C(C)/C=C\C=C(/C)C(=O)Nc2c(C)c(OC(C)=O)c3c(c2O)C(=O)C(C)=C2OCOC(=C23)/C(C)=C/C(C)(O)C(O)C(C)C1O` (centres undefined), for which the IC50 was under 0.2 µM and the IC90 is under 0.2 µM.
On to `Cc1ccc(CN2CCN(/N=C/c3ccc(Cl)c([N+](=O)[O-])c3)CC2)cc1`, for which the IC50 is 22.7 µM and the IC90 was found to be 36.5 µM.
On the same counts, the results for `CCC(C)NC(=O)c1c(N)n(/N=C/c2ccccn2)c2nc3ccccc3nc12` (centres undefined) are 9.73 µM and 14.3 µM.
Take `O=C(CSc1n[nH]c(-c2ccccc2)n1)Nc1ccc(Br)cn1`: the IC90 is over 100 µM.
Consider `O=c1oc(-c2cccs2)nc2c1cnn2-c1ccccc1`, for which the IC50 is 64.5 µM and the IC90 is over 100 µM.
For `COc1cc(NC(C)CCCN)c2ncccc2c1` (centres undefined), the IC50 is 9.14 µM and the IC90 stood at 13.9 µM.
On the same counts, the results for `CN(C)CCCNC(=O)c1ccc(-c2nc(-c3ccc(Cl)cc3)cs2)cc1` are 27.8 µM and 42.3 µM.
`COc1ccc(N2CN=C3SCC(=O)N3C2)cc1` displayed an IC90 of over 100 µM.
On to `Cc1cc(C)cc(-n2c(C)c3c(C)nnc(C)c3c2C)c1`, for which the IC50 is 62.8 µM and the IC90 came to 78.1 µM.
In the same order, the values of `CCC(=O)c1ccc(OCC(O)CN2CCN(c3cccc(C(F)(F)F)c3)CC2)cc1` (centres undefined) are 19.9 µM and 28 µM.
On the same counts, the results for `CCc1ccc(CCOc2ccc(CC3SC(=O)NC3=O)cc2)nc1` (centres undefined) are 23.3 µM and over 25 µM.
On to `CCOC(=O)/C(=N/Nc1ccccc1)c1csc(Nc2ccccc2)n1`, for which the IC50 is 34.6 µM and the IC90 was over 100 µM.
As to `Cc1nc(Nc2ccc(Cl)c(Cl)c2)sc1C(=O)Nc1ccccc1`, the half-inhibitory concentration (IC50) was 19.2 µM and the IC90 was over 100 µM.
In the same order, the values of `Oc1ccc(CN2CCc3ccccc3C2)c2cccnc12` are 61.5 µM and over 100 µM.
As for `Cc1cc(-c2ccc(Cl)cc2)c2cnn(C(C)C)c2n1`, the IC50 is 25.5 µM and the IC90 came out at 44.1 µM.
On to `CSc1nsc(SCC(=O)N2CCCCC2)n1`, for which the IC50 is 5.47 µM and the concentration for an effect of 90% (IC90) came out at 8.81 µM.
On the same counts, the results for `Cc1ccc(N(CCC#N)C(=O)CCl)cc1C` are 0.98 µM and 4.41 µM.
On the same counts, the results for `CN(C)c1ccc(CNC2C3CC4CC(C3)CC2C4)cc1` (centres undefined) are 11.8 µM and 13 µM.
In the same order, the values of `C[n+]1c(-c2ccccc2)c2cc(N)ccc2c2ccc(N)cc21` are 7.95 µM and 10.2 µM.
As to `Fc1ccc(C[n+]2c(-c3ccccc3)cc(-c3ccccc3)cc2-c2ccccc2)cc1`, the concentration for half-maximal inhibition (IC50) was 32.3 µM and the 90% effect concentration (IC90) stood at 44.3 µM.
In the same order, the values of `CCc1cc(/C(Cc2ccccn2)=N\Nc2ccccc2)c(O)cc1O` are 60.5 µM and 77.4 µM.
Turning to `CC1CCc2c(C(=O)Nc3nccs3)csc2C1` (centres undefined), the IC50 was 7.27 µM and the IC90 stood at 22.8 µM.
In the same order, the values of `C/C=C(\C)C(=O)Nc1cccc(C2=NOC3(C2)C[C@H](C(N)=O)N(C(=O)c2cc([N+](=O)[O-])cc([N+](=O)[O-])c2)C3)c1` (some centres undefined) are 1.34 µM and 3.37 µM.

(Values after PubChem BioAssay AID449762 (Southern Research Specialized Biocontainment Screening …, 2010).)
